Measurements taken from patent US20170000133A1, “BENZOXABOROLE FUNGICIDES” (SYNGENTA PARTICIPATIONS AG, priority 2013, published 2017).

Tested on: Glomerella lagenarium (Colletotrichum lagenarium)
Test: Glomerella lagenarium (Colletotrichum lagenarium) / liquid culture (anthracnose)
Type: cell-based
Conditions: Colletotrichum orbiculare, PDB potato dextrose broth, 24° C., 3-4 days after application, read-out: disease control (inhibition of growth measured photometrically)
Summary of the method: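 Compound was applied at 200 ppm from DMSO solution, then potato dextrose broth carrying cryostored fungal spores was added. Growth inhibition was measured by photometry after 3-4 days of incubation at 24° C.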

Row | SMILES | inhibition at 200 ppm
1 | O=C(NCc1ccccc1F)c1cc2c(cc1F)COB2O [Compound 107] | ≥ 80%
2 | Cc1cccc(Cl)c1NC(=O)c1cc2c(cc1Cl)COB2O [Compound 114] | ≥ 80%
3 | O=C(NCc1ccccc1C(F)(F)F)c1cc2c(cc1F)COB2O [Compound 132] | ≥ 80%
4 | O=C(NCc1ccco1)c1cc2c(cc1F)COB2O [Compound 144] | ≥ 80%
5 | CC(C)c1ccc(NC(=O)c2cc3c(cc2F)COB3O)cc1 [Compound 146] | ≥ 80%
6 | Cc1cccc(Cl)c1NC(=O)c1cc2c(cc1F)COB2O [Compound 150] | ≥ 80%
7 | C#CC(OC(=O)c1cc2c(cc1Cl)COB2O)c1ccccc1 (stereo not shown) [Compound 211] | ≥ 80%
8 | O=C(OCc1ccc(C(F)(F)F)nc1)c1cc2c(cc1Cl)COB2O [Compound 217] | ≥ 80%

Tested on: Thanatephorus cucumeris (Rhizoctonia solani)
Test: Thanatephorus cucumeris (Rhizoctonia solani) / liquid culture (foot rot, damping-off)
Type: cell-based
Conditions: PDB potato dextrose broth, 24° C., 3-4 days after application, read-out: disease control (inhibition of growth determined photometrically)
Summary of the method: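 Photometric growth-inhibition readout taken 3-4 days after application, with cultures incubated at 24 °C. Test compound was applied at 200 ppm from DMSO solution to R. solani mycelial fragments in PDB.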

Row | SMILES | inhibition at 200 ppm
9 | C#CC(OC(=O)c1cc2c(cc1Cl)COB2O)c1ccccc1 (stereo not shown) [Compound 211] | ≥ 80%

Tested on: Fusarium culmorum
Test: microbe, parasite or virus in culture
Type: cell-based
Conditions: read-out: disease control (inhibition of growth determined visually)

Row | SMILES | inhibition at 200 ppm
10 | Cc1cccc(Cl)c1NC(=O)c1cc2c(cc1Cl)COB2O [Compound 114] | ≥ 80%
11 | CC(C)c1ccc(NC(=O)c2cc3c(cc2F)COB3O)cc1 [Compound 146] | ≥ 80%
12 | Cc1cccc(Cl)c1NC(=O)c1cc2c(cc1F)COB2O [Compound 150] | ≥ 80%

Tested on: Gaeumannomyces graminis
Test: Gaeumannomyces graminis / liquid culture (take-all of cereals)
Type: cell-based
Conditions: PDB potato dextrose broth, 24° C., 4-5 days after application, read-out: disease control (inhibition of growth determined photometrically)
Summary of the method: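 Growth inhibition measured photometrically 4–5 days post-application, following incubation at 24 °C. Test compound, applied from DMSO at 200 ppm, mixed with fungal mycelial fragments in potato dextrose broth.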

Row | SMILES | inhibition at 200 ppm
13 | O=C(NCc1ccccc1C(F)(F)F)c1cc2c(cc1F)COB2O [Compound 132] | ≥ 80%
14 | O=C(NCc1ccco1)c1cc2c(cc1F)COB2O [Compound 144] | ≥ 80%
15 | O=C(OCc1ccc(C(F)(F)F)nc1)c1cc2c(cc1Cl)COB2O [Compound 217] | ≥ 80%

Tested on: Monographella nivalis (Microdochium nivale)
Test: Monographella nivalis (Microdochium nivale) / liquid culture (foot rot cereals)
Type: cell-based
Conditions: PDB potato dextrose broth, 24° C., 4-5 days after application, read-out: disease control (inhibition of growth determined photometrically)

Row | SMILES | inhibition at 200 ppm
16 | Cc1cccc(Cl)c1NC(=O)c1cc2c(cc1Cl)COB2O [Compound 114] | ≥ 80%
17 | O=C(NCc1ccccc1C(F)(F)F)c1cc2c(cc1F)COB2O [Compound 132] | ≥ 80%
18 | O=C(NCc1ccco1)c1cc2c(cc1F)COB2O [Compound 144] | ≥ 80%
19 | CC(C)c1ccc(NC(=O)c2cc3c(cc2F)COB3O)cc1 [Compound 146] | ≥ 80%
20 | Cc1cccc(Cl)c1NC(=O)c1cc2c(cc1F)COB2O [Compound 150] | ≥ 80%
21 | C#CC(OC(=O)c1cc2c(cc1Cl)COB2O)c1ccccc1 (stereo not shown) [Compound 211] | ≥ 80%
22 | O=C(OCc1ccc(C(F)(F)F)nc1)c1cc2c(cc1Cl)COB2O [Compound 217] | ≥ 80%

Tested on: Plasmopara viticola
Test: whole plant or invertebrate
Type: in vivo
Conditions: foliar, read-out: disease control

Row | SMILES | pest or weed control at 200 ppm
23 | O=C(NCc1ccccc1F)c1cc2c(cc1F)COB2O [Compound 107] | ≥ 80%
24 | Cc1cccc(Cl)c1NC(=O)c1cc2c(cc1Cl)COB2O [Compound 114] | ≥ 80%
25 | O=C(NCc1ccccc1C(F)(F)F)c1cc2c(cc1F)COB2O [Compound 132] | ≥ 80%
26 | O=C(NCc1ccco1)c1cc2c(cc1F)COB2O [Compound 144] | ≥ 80%
27 | C#CC(OC(=O)c1cc2c(cc1Cl)COB2O)c1ccccc1 (stereo not shown) [Compound 211] | ≥ 80%

Tested on: Pythium ultimum
Test: Pythium ultimum / liquid culture (seedling damping off)
Type: cell-based
Conditions: Globisporangium ultimum; 200 ppm; potato dextrose broth, 24° C., 2-3 days after application; read-out: disease control (inhibition of growth determined photometrically)

Row | SMILES | inhibition at 200 ppm
28 | O=C(NCc1ccccc1F)c1cc2c(cc1F)COB2O [Compound 107] | ≥ 80%
29 | O=C(NCc1ccccc1C(F)(F)F)c1cc2c(cc1F)COB2O [Compound 132] | ≥ 80%
30 | O=C(NCc1ccco1)c1cc2c(cc1F)COB2O [Compound 144] | ≥ 80%
31 | CC(C)c1ccc(NC(=O)c2cc3c(cc2F)COB3O)cc1 [Compound 146] | ≥ 80%
32 | Cc1cccc(Cl)c1NC(=O)c1cc2c(cc1F)COB2O [Compound 150] | ≥ 80%
33 | C#CC(OC(=O)c1cc2c(cc1Cl)COB2O)c1ccccc1 (stereo not shown) [Compound 211] | ≥ 80%
34 | O=C(OCc1ccc(C(F)(F)F)nc1)c1cc2c(cc1Cl)COB2O [Compound 217] | ≥ 80%

Tested on: not given
Test: not given
Conditions: not given

Row | SMILES | melting point
35 | O=C(NCc1ccccc1F)c1cc2c(cc1F)COB2O [Compound 107] | 175 to 177 °C
36 | O=C(NCc1ccco1)c1cc2c(cc1F)COB2O [Compound 144] | 158 to 160 °C
37 | CC(C)c1ccc(NC(=O)c2cc3c(cc2F)COB3O)cc1 [Compound 146] | 184 to 186 °C
38 | Cc1cccc(Cl)c1NC(=O)c1cc2c(cc1F)COB2O [Compound 150] | 212 to 214 °C

Tested on: Mycosphaerella graminicola (Septoria tritici)
Test: Mycosphaerella graminicola (Septoria tritici) / liquid culture (Septoria blotch)
Type: cell-based
Conditions: Zymoseptoria tritici, PDB potato dextrose broth, 24° C., 4-5 days after application, read-out: disease control (inhibition of growth determined photometrically)
Summary of the method: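 Growth inhibition was read photometrically 4-5 days after application, following incubation at 24° C of fungal conidia in potato dextrose broth over test compound (200 ppm, from DMSO solution) in microtiter plates.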

Row | SMILES | inhibition at 200 ppm
39 | Cc1cccc(Cl)c1NC(=O)c1cc2c(cc1Cl)COB2O [Compound 114] | ≥ 80%
40 | O=C(NCc1ccco1)c1cc2c(cc1F)COB2O [Compound 144] | ≥ 80%
41 | CC(C)c1ccc(NC(=O)c2cc3c(cc2F)COB3O)cc1 [Compound 146] | ≥ 80%
42 | C#CC(OC(=O)c1cc2c(cc1Cl)COB2O)c1ccccc1 (stereo not shown) [Compound 211] | ≥ 80%

Tested on: Mycosphaerella arachidis (Cercospora arachidicola)
Test: Mycosphaerella arachidis (Cercospora arachidicola) / liquid culture (early leaf spot)
Type: cell-based
Conditions: PDB potato dextrose broth, 24° C., 4-5 days after application, read-out: disease control (inhibition of growth determined photometrically)
Summary of the method: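 Test compound, applied at 200 ppm from DMSO solution, was combined with spore-containing potato dextrose broth. Photometric growth inhibition was scored after 4-5 days at 24° C.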

Row | SMILES | inhibition at 200 ppm
43 | O=C(NCc1ccco1)c1cc2c(cc1F)COB2O [Compound 144] | ≥ 80%

Tested on: Phytophthora infestans
Test: whole plant or invertebrate
Type: in vivo
Conditions: in Solanum lycopersicum, foliar, read-out: disease control

Row | SMILES | pest or weed control at 200 ppm
44 | O=C(NCc1ccccc1F)c1cc2c(cc1F)COB2O [Compound 107] | ≥ 80%
45 | Cc1cccc(Cl)c1NC(=O)c1cc2c(cc1Cl)COB2O [Compound 114] | ≥ 80%
46 | O=C(NCc1ccccc1C(F)(F)F)c1cc2c(cc1F)COB2O [Compound 132] | ≥ 80%
47 | Cc1cccc(Cl)c1NC(=O)c1cc2c(cc1F)COB2O [Compound 150] | ≥ 80%
48 | C#CC(OC(=O)c1cc2c(cc1Cl)COB2O)c1ccccc1 (stereo not shown) [Compound 211] | ≥ 80%
49 | O=C(OCc1ccc(C(F)(F)F)nc1)c1cc2c(cc1Cl)COB2O [Compound 217] | ≥ 80%
